Data reported in patent US6294547A, “Naphthyridine deratives or salts thereof” (Nippon Kayaku Kabushiki Kaisha, priority 1997, dated 2001).
pIC50: −log10 of the molar value. Where a name gives a salt, the structure may show the parent alone.

Legend:
[1] = molecular target: T1, NK-1 receptors (Cavia porcellus, UniProt P30547); experiment: Antagonism for NK-1 receptor (methylsubstance P induced contraction of isolated ileum); assay type: cell-based, Hartley strain male guinea pigs; details: guinea pig ileum; methylsubstance P 1×10^-9 M; 35 min incubation; read-out: IC50 of a drug on methylsubstance P induced contraction
T1 construct: the ileums were isolated; from tissue; host or cells: isolated ileum of male Hartley guinea pigs
Procedure: Hartley strain male guinea pigs were killed by a blow on the head and blood-letting, and the ileums were isolated. A specimen of about 3 cm in length was prepared and then suspended at a tension of 0.5 gw in a 15 magunus bath with an internal volume of 15 ml containing Krebs-Henseleit solution of 37° C. while introducing a mixed gas of 95% O2 +5% CO2 into the bath. As the Krebs-Henseleit solution, that containing atropine (1×10^-6 M) and indomethacin (5×10^-6 M) was used for preventing the participation of intrinsic acetylcholine and prostaglandins. Methylsubstance P (1×10^-9 M), a specific stimulating agent for NK-1 receptors were repeatedly allowed to act on the specimen at intervals of 40 minutes. After the percentage of contraction due to methylsubstance P became constant, a drug was added to the solution to each of various concentrations, followed by incubation for 35 minutes, and methyl-substance P was allowed to act on the specimen again. The rate of inhibition by the drug was determined relative to the percentage of contraction immediately before the addition of the drug, and the 50% inhibitory concentration (IC50) of the drug was determined by means of a regression line.

[2] = system: NK-2 receptors; experiment: Antagonism for NK-2 receptors (neurokinin A induced contraction of isolated trachea); assay type: cell-based, Hartley strain male guinea pigs; details: concentration 5 × 10^-9 M; neurokinin A 1×10^-9 M; guinea pig trachea; 110 min incubation
Procedure: Hartley strain male guinea pigs were killed by a blow on the head and blood-letting, and the tracheas were isolated. Specimens each composed of five slices of the trachea were prepared, and suspended at a tension of 0.5 gw in a magunus bath with an internal volume of 15 ml containing Krebs-Henseleit solution of 37° C. while introducing a mixed gas of 95% O2 +5% CO2 into the bath. As the Krebs-Henseleit solution, that containing indomethacin ([…]) was used for preventing the participation of intrinsic prostaglandins. After confirming the maximum degree of contraction of each specimen by the use of methacholine,a drug or a solvent therefor was added to the solution, followed by incubation for 110 minutes, and neurokinin A (1×10^-9 M) was allowed to act on the specimen. Phosphoramidon (1×10^-5 M) for inhibiting the degradation of neurokinin A and (±)CP-96345 (3×10^-7 M) for preventing the participation of NK-1 receptors were added 30 minutes and 20 minutes, respectively, before the addition of neurokinin A. The degree of contraction due to neurokinin A was converted to the percentage based on the maximum degree of contraction of the specimen, and then the rate of inhibition by the drug was determined relative to the percentage of contraction of the other specimen used in the case of adding the solvent.

T1 sequence (P30547 whole entry): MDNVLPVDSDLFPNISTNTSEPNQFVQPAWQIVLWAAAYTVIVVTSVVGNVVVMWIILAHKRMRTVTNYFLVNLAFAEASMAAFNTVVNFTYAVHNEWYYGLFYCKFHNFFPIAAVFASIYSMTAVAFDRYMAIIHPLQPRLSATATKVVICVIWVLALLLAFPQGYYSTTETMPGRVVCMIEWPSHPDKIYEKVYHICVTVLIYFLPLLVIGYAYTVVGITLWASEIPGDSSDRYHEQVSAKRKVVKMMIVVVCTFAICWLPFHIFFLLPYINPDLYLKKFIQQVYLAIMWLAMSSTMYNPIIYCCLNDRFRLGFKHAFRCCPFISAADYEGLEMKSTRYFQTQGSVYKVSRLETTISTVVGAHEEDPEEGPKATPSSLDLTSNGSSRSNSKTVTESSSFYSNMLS

CN(CC(CCN1CCc2nc3c(cc2C1)CCCC3)c1ccc(Cl)c(Cl)c1)C(=O)c1ccccc1 (single isomer, unassigned) [Example 25, 2-[(-)-4-(N-benzoyl-N-methyl)amino-3-(3,4-dichlorophenylbutyll-1,2,3,4,6,7,8,9-octahydro-benzo[b][1,6]naphthyridine fumarate]
pIC50 [1]: 6.33
Inhibition rate, neurokinin A induced contraction [2]: 89.1%
